In ChEMBL document CHEMBL4680160, “A perspective review on fatty acid amide hydrolase (FAAH) inhibitors as potential therapeutic agents” (Eur J Med Chem, 2020):

The compounds below were run against T1, Fatty-acid amide hydrolase 1 (Rattus norvegicus, UniProt P97612) (assay: Inhibition of FAAH in rat brain microsomes using N-(2-hydroxyethyl)-4-pyren-1-ylbutanamide as substrate incubated for 45 mins by reverse-phase HPLC-based fluorescence assay).
T1 sequence (P97612 whole entry): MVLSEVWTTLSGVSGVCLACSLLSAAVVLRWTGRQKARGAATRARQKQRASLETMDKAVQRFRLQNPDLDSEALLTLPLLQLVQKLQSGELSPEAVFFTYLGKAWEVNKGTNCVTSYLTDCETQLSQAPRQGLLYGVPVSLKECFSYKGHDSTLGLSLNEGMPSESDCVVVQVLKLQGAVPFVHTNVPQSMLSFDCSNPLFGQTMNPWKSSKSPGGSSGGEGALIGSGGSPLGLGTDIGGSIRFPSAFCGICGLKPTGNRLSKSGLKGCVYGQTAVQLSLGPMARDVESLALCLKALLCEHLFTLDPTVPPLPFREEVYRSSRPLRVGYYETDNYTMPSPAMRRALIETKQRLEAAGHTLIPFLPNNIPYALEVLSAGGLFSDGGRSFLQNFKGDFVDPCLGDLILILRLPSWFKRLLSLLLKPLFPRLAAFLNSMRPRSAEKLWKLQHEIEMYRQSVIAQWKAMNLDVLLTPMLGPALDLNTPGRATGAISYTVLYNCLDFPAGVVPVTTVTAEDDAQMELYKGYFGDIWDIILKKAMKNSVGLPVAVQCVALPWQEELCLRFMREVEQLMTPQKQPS

IC50	Compound
6.3 µM	COCC(=O)Nc1ccc2c(cnn2CC(=O)COc2ccc(Oc3ccccc3)cc2)c1
1.6 µM	CCNC(=O)Nc1ccc2c(cnn2CC(=O)COc2ccc(Oc3ccccc3)cc2)c1
0.55 µM	O=C(COc1ccc(Oc2ccccc2)cc1)Cn1ncc2cc([N+](=O)[O-])ccc21
2.1 µM	O=C(COc1ccc(Oc2ccccc2)cc1)Cn1ncc2cc(NC(=O)Oc3ccccc3)ccc21
6 µM	O=C(COc1ccc(Oc2ccccc2)cc1)Cn1ncc2cc(NC(=O)Nc3ccccc3)ccc21
5.3 µM	N#CNC(COc1ccc(Oc2ccccc2)cc1)Cn1ncnn1 (configuration not stated)
0.008 µM	O=C(COc1ccc(Oc2ccccc2)cc1)Cn1ncnn1
0.055 µM	O=C(COc1ccc(Oc2ccccc2)cc1)Cn1ncc2cc(C(=O)O)ccc21
4 µM	COC(=O)Nc1ccc2c(cnn2CC(=O)COc2ccc(Oc3ccccc3)cc2)c1
0.77 µM	CS(=O)(=O)NC(=O)c1ccc2c(cnn2CC(=O)COc2ccc(Oc3ccccc3)cc2)c1
0.51 µM	O=C(COc1ccc(Oc2ccccc2)cc1)Cn1ncc2cc(C(=O)NS(=O)(=O)C(F)(F)F)ccc21
4.7 µM	O=C(COc1ccc(Oc2ccccc2)cc1)Cn1ncc2cc(C(=O)NS(=O)(=O)c3ccccc3)ccc21
2.6 µM	O=C(COc1ccc(Oc2ccccc2)cc1)Cn1ncc2ccccc21
10 µM	O=C(Cn1nnc2ccccc21)c1nc2cc(Oc3ccccc3)ccc2o1
0.84 µM	O=C(COc1ccc(Oc2ccccc2)cc1)Cn1ncc2cc(NC(=O)NC3CCCCC3)ccc21
3.9 µM	CC(=O)Nc1ccc2c(cnn2CC(=O)COc2ccc(Oc3ccccc3)cc2)c1
5.4 µM	O=C(COc1ccc(Oc2ccccc2)cc1)Cn1ncc2cc(NC(=O)CO)ccc21

Each compound was assayed against T1, Fatty-acid amide hydrolase 1 (assay: Inhibition of FAAH in rat brain homogenate using [3H]AEA as substrate incubated for 10 mins by liquid scintillation spectroscopy).
Assay type: tissue-based

IC50	Compound
4.7 µM	CC(C)Cc1ccc(C(C)C(=O)N2CCN(c3ccccc3)CC2)cc1 (configuration not stated)
28 µM	CC(C)Cc1ccc(C(C)C(=O)NCc2cccc(C(F)(F)F)c2)cc1 (configuration not stated)
25 µM	CC(C)Cc1ccc(C(C)C(=O)NCc2ccc(C(C)(C)C)cc2)cc1 (configuration not stated)
1.7 µM	CC(C)Cc1ccc(C(C)C(=O)N2CCN(c3cccc(Cl)c3)CC2)cc1 (configuration not stated)
27 µM	CC(C)Cc1ccc(C(C)C(=O)NCc2ccc(Cl)cc2)cc1 (configuration not stated)
4.5 µM	COc1ccc(N2CCN(C(=O)C(C)c3ccc(CC(C)C)cc3)CC2)cc1 (configuration not stated)
21 µM	CC(C)Cc1ccc(C(C)C(=O)NCc2ccccc2)cc1 (configuration not stated)
51 µM	CC(C)Cc1ccc(C(C)C(=O)NCc2ccc(C(F)(F)F)cc2)cc1 (configuration not stated)
27 µM	CC(C)Cc1ccc(C(C)C(=O)NCc2ccc(F)cc2)cc1 (configuration not stated)
1.7 µM	CC(C)Cc1ccc(C(C)C(=O)N2CCN(c3ccc(Cl)cc3)CC2)cc1 (configuration not stated)
16 µM	Cc1cccc(N2CCN(C(=O)C(C)c3ccc(CC(C)C)cc3)CC2)c1 (configuration not stated)
18 µM	COc1ccc(CNC(=O)C(C)c2ccc(CC(C)C)cc2)cc1O (configuration not stated)
43 µM	COc1ccc(CNC(=O)C(C)c2ccc(CC(C)C)cc2)cc1 (configuration not stated)
18 µM	COc1ccccc1CNC(=O)C(C)c1ccc(CC(C)C)cc1 (configuration not stated)
16 µM	CC(C)Cc1ccc(C(C)C(=O)N2CCN(c3ccc(Cl)c(Cl)c3)CC2)cc1 (configuration not stated)
36 µM	CC(C)Cc1ccc(C(C)C(=O)NCc2ccc(Cl)c(Cl)c2)cc1 (configuration not stated)
1.7 µM	Cc1cccc(N2CCN(C(=O)C(C)c3ccc(CC(C)C)cc3)CC2)c1C (configuration not stated)

What follows are compounds tested against T1, Fatty-acid amide hydrolase 1 (assay: Inhibition of FAAH in rat brain homogenate using [3H]AEA as substrate).
Assay type: tissue-based

IC50	Compound
13 µM	O=C(COc1ccc(-c2ccccc2)cc1)Nc1cccc(-c2nc3cccnc3[nH]2)c1
47 µM	O=C(COc1ccc(C2CCCCC2)cc1)Nc1cccc(-c2nc3ncccc3[nH]2)c1
0.63 µM	O=C(COc1ccc(-c2ccccc2)cc1)Nc1cccc(-c2nc3ncccc3o2)c1
18 µM	O=C(COc1ccccc1)Nc1cccc(-c2nc3ncccc3o2)c1
17 µM	CCC/C=C/COCC(=O)Nc1cccc(-c2nc3ncccc3o2)c1
0.62 µM	O=C(COc1ccc(-c2ccccc2)cc1)Nc1ccc(-c2nc3ncccc3[nH]2)cc1
2.6 µM	O=C(COc1ccc(C2CCCCC2)cc1)Nc1cccc(-c2nc3ncccc3o2)c1
2.1 µM	CC(C)c1ccc(OCC(=O)Nc2cccc(-c3nc4ncccc4o3)c2)cc1
